The values that follow come from patent publication US11477967B2, “Microfluidic device, system and methods thereof for measuring and recording electrical signals from a pool of multiple nematodes” (NemaMetrix Inc., priority 2018, dated 2022).

Holding throughout (type): in vivo, C. elegans
The test system of assay [1] is pool of multiple nematodes. As to the kind of experiment: composite EPG from a pool of multiple nematodes, microfluidic device 100 / system 200. The conditions noted are these: approximately 25 nematodes between electrodes, serotonin M9 buffer solution (10 mM serotonin); peak absent in normal M9 buffer; FIG. 4C. On the procedure: (§1) To obtain nematodes of a consistent size that were compatible with the dimensions of the recording channel 120, we utilized a common procedure to obtain a large number of age synchronized eggs. Eggs were deposited in a culture plate containing food and cultivated at 20 C for 3 days, yielding a large population of young adult nematodes.
To prepare nematodes for recording, 2 mL of “normal M9 buffer solution,” defined in Table 3, was added to a culture plate containing young adult nematodes grown from synchronized eggs. The plate was swirled to lift nematodes into the solution and the contents were poured into a 2 mL Eppendorf tube. Nematodes were cleaned of adherent bacteria and debris by 5 cleaning cycles each of which involved pelleting nematodes in a centrifuge (1.2 g, 30 sec), drawing off the supernatant, and resuspending in M9 buffer. To stimulate pharyngeal pumping, the final resuspension used “serotonin M9 buffer solution” which contained 10 mM serotonin in addition to the constituents in Table 3. […]
Two lines of evidence indicate that the recorded activity represents pharyngeal pumping.

The subject of assay [2] is nematodes. As to the kind of experiment: single-nematode EPG recordings (ScreenChip System) and synthetic composite EPG summed from them. How it is done: as §1
To prepare nematodes for recording, 2 mL of “normal M9 buffer solution,” defined in Table 3, was added to a culture plate containing young adult nematodes grown from synchronized eggs. The plate was swirled to lift nematodes into the solution and the contents were poured into a 2 mL Eppendorf tube. Nematodes were cleaned of adherent bacteria and debris by 5 cleaning cycles each of which involved pelleting nematodes in a centrifuge (1.2 g, 30 sec), drawing off the supernatant, and resuspending in M9 buffer. […]
According to circuit theory, (i) the waveform of a composite EPG recorded at electrodes 135 and 145 should be the sum of the voltage differences generated by each nematode at its unique location and orientation with respect to the electrodes and other nematodes, and (ii) the peak frequency of the waveform's power spectrum should represent the average pumping frequency of the population of nematodes between the electrodes. […]

Assay [3] concerns pool of multiple nematodes. As to the kind of experiment: composite EPG from a pool of multiple nematodes, microfluidic device 500 / system 600, Solution A versus Solution B. Particulars: same pool of nematodes; Solution A normal M9 buffer 16 min, Solution B serotonin M9 buffer 25 min; FIG. 7C. From the text: To obtain nematodes of a consistent size that were compatible with the dimensions of the recording channel 515, we used the method of Example 2. Alternative methods using filters can also be used to obtain an age/size synchronized population of nematodes for use. See US Patent Publ. No. 2019/0090458.
To prepare nematodes for recording, we used the method of Example 2, except that the final resuspension used “normal M9 buffer solution,” defined in Table 3.
For filling the microfluidic device, we used the method of Example 2, except that the syringe and tubing were filled with “normal M9 buffer solution.”
At the end of this recording, the normal M9 buffer solution was replaced with Solution B, serotonin M9 buffer solution disclosed in Example 1, without dislodging the original pool of nematodes. Replacement was accomplished by exchanging the syringe and tubing filled with normal M9 buffer solution for a syringe and tubing filled with serotonin M9 buffer solution. […]
The center frequency of this peak is within the expected range of pharyngeal pumping frequency. […] However, as the same population of nematodes was recorded under conditions of the two different buffer solutions in FIG. 7C, but not in FIG. 4C, FIG. 7C establishes, in addition, that the system 600 can be used to measure the effect of drugs or other test compounds on pharyngeal pumping. […]

For the compound `NCCc1c[nH]c2ccc(O)cc12` [serotonin], in assay [1], the “peak of power spectrum of composite EPG” value worked out at 5.6 Hz. Besides, the average pumping frequency in assay [2] (22 nematodes, single-nematode EPGs in serotonin M9 buffer solution (10 mM serotonin), 10-14 min, ± SEM) is reported as 4.9±0.13 Hz. The “peak frequency of power spectrum of synthetic (in silico) composite EPG recording” value in assay [2] (sum of all 22 single-nematode EPG measurements in serotonin M9 buffer solution (10 mM serotonin), FIG. 3E) is given as 5.1 Hz. In assay [3], the “center frequency of peak of difference trace between power spectra of Solution B and Solution A” value came to 5 Hz.
